Results reported in patent CN111517978A, “环己烯基-dl-天门冬氨酸衍生物及其制备方法、组合物与用途” (Zhongshan Wanhan Pharmaceutical Co ltd, priority 2020, dated 2020).

Experiments:
Format in all cases: cell-based
Conditions in all cases: component A (XP or YS) alone
[1] = system: Escherichia coli ATCC25922 (大肠杆菌ATCC25922); test: Antibacterial action (MIC, FICI) against Escherichia coli ATCC25922 (Table 7)
[2] = system: Streptococcus intermedius ATCC27335 (中间链球菌ATCC27335); test: Antibacterial action (MIC, FICI) against Streptococcus intermedius ATCC27335 (Table 20)
[3] = system: Stenotrophomonas maltophilia NCTC 13637 (嗜麦芽窄食单胞菌NCTC 13637); test: Antibacterial action (MIC, FICI) against Stenotrophomonas maltophilia NCTC 13637 (Table 18)
[4] = system: Shigella flexneri 2aEW-10 (福氏志贺氏菌2aEW-10); test: Antibacterial action (MIC, FICI) against Shigella flexneri 2aEW-10 (Table 15)
[5] = system: Providencia stuartii 57 (斯氏普罗威登斯菌57); test: Antibacterial action (MIC, FICI) against Providencia stuartii 57 (Table 12)
[6] = system: Clostridium perfringens ATCC13124 (产气荚膜梭状芽孢杆菌ATCC13124)
[7] = system: Micrococcus lysodeikticus 2665 (溶壁微球菌2665); test: Antibacterial action (MIC, FICI) against Micrococcus lysodeikticus 2665 (Table 4)
[8] = system: Serratia marcescens IFO 3736 (黏质沙雷氏菌IFO 3736); test: Antibacterial action (MIC, FICI) against Serratia marcescens IFO 3736 (Table 10)
[9] = system: Klebsiella pneumoniae NCTC 9632 (肺炎克雷伯菌NCTC 9632); test: Antibacterial action (MIC, FICI) against Klebsiella pneumoniae NCTC 9632 (Table 9)
[10] = system: Propionibacterium acnes ATCC11828 (痤疮丙酸杆菌ATCC11828); test: Antibacterial action (MIC, FICI) against Propionibacterium acnes ATCC11828 (Table 21)

| SMILES | MIC_A [1] | MIC_A [2] | MIC_A [3] | MIC_A [5] | MIC_A [8] | MIC_A [9] | other results |
| --- | --- | --- | --- | --- | --- | --- | --- |
| CCC(CC)O[C@@H]1C=C(C(=O)O)C[C@H](NC(C)=O)[C@H]1NC(CC(=O)O)C(=O)O (mixture of isomers) [化合物2P, ((1R,2R,6S)-6-乙酰氨基-4-羧基-2-(戊-3-基氧基)环己-3-烯-1-基)-DL-天门冬氨酸] | 45 ng/mL | 10 ng/mL | 13 ng/mL | – | – | – | MIC_A [4]: 22 ng/mL |
| CCOC(=O)C1=C[C@@H](OC(CC)CC)[C@H](NC(C)=O)[C@@H](NC(CC(=O)O)C(=O)O)C1 (mixture of isomers) [化合物4P, ((1S,5R,6R)-6-乙酰氨基-3-(乙氧基羰基)-5-(戊-3-基氧基)环己-3-烯-1-基)-DL-天门冬氨酸] | 17 ng/mL | – | – | 34 ng/mL | – | – | MIC_A [6]: 36 ng/mL |
| CCOC(=O)C1=C[C@H](OC(CC)CC)[C@H](NC(C)=O)[C@@H](NC(CC(=O)O)C(=O)O)C1 (mixture of isomers) [化合物6P, ((1S,5S,6R)-6-乙酰氨基-3-(乙氧基羰基)-5-(戊-3-基氧基)环己-3-烯-1-基)-DL-天门冬氨酸] | – | 28 ng/mL | 17 ng/mL | – | 7 ng/mL | – | MIC_A [7]: 26 ng/mL |
| CCOC(=O)C1=C[C@H](OC(CC)CC)[C@@H](NC(C)=O)[C@H](NC(CC(=O)O)C(=O)O)C1 (mixture of isomers) [化合物7P, ((1R,5S,6S)-6-乙酰氨基-3-(乙氧基羰基)-5-(戊-3-基氧基)环己-3-烯-1-基)-DL-天门冬氨酸] | 27 ng/mL | – | – | – | – | 25 ng/mL | MIC_A [4]: 60 ng/mL; MIC_A [10]: 10 ng/mL |
| CCOC(=O)C1=C[C@@H](OC(CC)CC)[C@@H](NC(C)=O)[C@@H](NC(CC(=O)O)C(=O)O)C1 (mixture of isomers) [化合物8P, ((1S,5R,6S)-6-乙酰氨基-3-(乙氧基羰基)-5-(戊-3-基氧基)环己-3-烯-1-基)-DL-天门冬氨酸] | – | – | 41 ng/mL | – | – | – | MIC_A [6]: 28 ng/mL |
| CCOC(=O)C1=C[C@@H](OC(CC)CC)[C@H](NC(C)=O)[C@@H](NC(CC(=O)O)C(=O)O)C1 (mixture of isomers) [化合物1P, ((1S,5R,6R)-6-乙酰氨基-3-(乙氧基羰基)-5-(戊-3-基氧基)环己-3-烯-1-基)-DL-天门冬氨酸] | – | – | – | 13 ng/mL | – | – | MIC_A [7]: 4 ng/mL; MIC_A [6]: 12 ng/mL; MIC_A [10]: 18 ng/mL |
| CCC(CC)O[C@@H]1C=C(C(=O)O)C[C@H](NC(CC(=O)O)C(=O)O)[C@H]1N (mixture of isomers) [化合物11P, ((1S,5R,6R)-6-氨基-3-羧基-5-(戊-3-基氧基)环己-3-烯-1-基)-DL-天门冬氨酸] | 7 ng/mL | – | 50 ng/mL | 17 ng/mL | – | 22 ng/mL | MIC_A [6]: 22 ng/mL |
| CCOC(=O)C1=C[C@@H](OC(CC)CC)[C@H](N)[C@@H](NC(CC(=O)O)C(=O)O)C1 (mixture of isomers) [化合物12P, ((1S,5R,6R)-6-氨基-3-(乙氧基羰基)-5-(戊-3-基氧基)环己-3-烯-1-基)-DL-天门冬氨酸] | – | 25 ng/mL | – | – | 47 ng/mL | – | MIC_A [7]: 30 ng/mL |
| CCOC(=O)C1=C[C@@H](O)[C@H](NC(C)=O)[C@@H](NC(CC(=O)O)C(=O)O)C1 (mixture of isomers) [化合物13P, ((1S,5R,6R)-6-乙酰氨基-3-(乙氧基羰基)-5-羟基环己-3-烯-1-基)-DL-天门冬氨酸] | – | 22 ng/mL | – | 54 ng/mL | – | 55 ng/mL | MIC_A [7]: 27 ng/mL |
| CCOC(=O)C1=C[C@@H](O)[C@H](N)[C@@H](NC(CC(=O)O)C(=O)O)C1 (mixture of isomers) [化合物14P, ((1S,5R,6R)-6-氨基-3-(乙氧基羰基)-5-羟基环己-3-烯-1-基)-DL-天门冬氨酸] | – | – | – | – | 46 ng/mL | – | MIC_A [10]: 18 ng/mL |
| CCC(CC)O[C@H]1C=C(C(=O)O)C[C@@H](NC(CC(=O)O)C(=O)O)[C@@H]1N (mixture of isomers) [化合物16P, ((1R,5S,6S)-6-氨基-3-羧基-5-(戊-3-基氧基)环己-3-烯-1-基)-DL-天门冬氨酸] | – | – | – | – | – | 15 ng/mL | – |
| CCOC(=O)C1=C[C@@H](OC(C)CC)[C@H](NC(C)=O)[C@@H](NC(CC(=O)O)C(=O)O)C1 (mixture of isomers) [化合物19P, ((1S,5R,6R)-6-乙酰氨基-5-(sec-丁氧基)-3-(乙氧基羰基)环己-3-烯-1-基)-DL-天门冬氨酸] | – | 11 ng/mL | – | 17 ng/mL | 13 ng/mL | – | – |
| CCOC(=O)C1=C[C@@H](OC(C)C)[C@H](NC(C)=O)[C@@H](NC(CC(=O)O)C(=O)O)C1 (mixture of isomers) [化合物20P, ((1S,5R,6R)-6-乙酰氨基-3-(乙氧基羰基)-5-异丙氧基环己-3-烯-1-基)-DL-天门冬氨酸] | 19 ng/mL | – | 36 ng/mL | – | – | – | MIC_A [10]: 18 ng/mL |
| CCC(CC)O[C@@H]1C=C(C(=O)O)C[C@H](NC(C)=O)[C@H]1N [化合物2S, (3R,4R,5S)-5-乙酰氨基-4-氨基-3-(戊-3-基氧基)环己-1-烯-1-羧酸] | 720 ng/mL | 493 ng/mL | 879 ng/mL | – | – | – | MIC_A [4]: 345 ng/mL |
| CCOC(=O)C1=C[C@@H](OC(CC)CC)[C@H](NC(C)=O)[C@@H](N)C1 [化合物4S, 乙基(3R,4R,5S)-4-乙酰氨基-5-氨基-3-(戊-3-基氧基)环己-1-烯-1-羧酸酯] | 456 ng/mL | – | – | 581 ng/mL | – | – | MIC_A [6]: 762 ng/mL |
| CCOC(=O)C1=C[C@H](OC(CC)CC)[C@H](NC(C)=O)[C@@H](N)C1 [化合物6S, 乙基(3S,4R,5S)-4-乙酰氨基-5-氨基-3-(戊-3-基氧基)环己-1-烯-1-羧酸酯] | – | 521 ng/mL | 473 ng/mL | – | 445 ng/mL | – | MIC_A [7]: 556 ng/mL |
| CCOC(=O)C1=C[C@H](OC(CC)CC)[C@@H](NC(C)=O)[C@H](N)C1 [化合物7S, 乙基(3S,4S,5R)-4-乙酰氨基-5-氨基-3-(戊-3-基氧基)环己-1-烯-1-羧酸酯] | 484 ng/mL | – | – | – | – | 376 ng/mL | MIC_A [4]: 1145 ng/mL; MIC_A [10]: 461 ng/mL |
| CCOC(=O)C1=C[C@@H](OC(CC)CC)[C@@H](NC(C)=O)[C@@H](N)C1 [化合物8S, 乙基(3R,4S,5S)-4-乙酰氨基-5-氨基-3-(戊-3-基氧基)环己-1-烯-1-羧酸酯] | – | – | 800 ng/mL | – | – | – | MIC_A [6]: 483 ng/mL |
| CCC(CC)O[C@@H]1C=C(C(=O)O)C[C@H](N)[C@H]1N [化合物11S, (3R,4R,5S)-4,5-二氨基-3-(戊-3-基氧基)环己-1-烯-1-羧酸] | 659 ng/mL | – | 774 ng/mL | 1106 ng/mL | – | 650 ng/mL | MIC_A [6]: 482 ng/mL |
| CCOC(=O)C1=C[C@@H](OC(CC)CC)[C@H](N)[C@@H](N)C1 [化合物12S, 乙基(3R,4R,5S)-4,5-二氨基-3-(戊-3-基氧基)环己-1-烯-1-羧酸酯] | – | 406 ng/mL | – | – | 691 ng/mL | – | MIC_A [7]: 1027 ng/mL |
| CCOC(=O)C1=C[C@@H](O)[C@H](NC(C)=O)[C@@H](N)C1 [化合物13S, 乙基(3R,4R,5S)-4-乙酰氨基-5-氨基-3-羟基环己-1-烯-1-羧酸酯] | – | 655 ng/mL | – | 1021 ng/mL | – | 1081 ng/mL | MIC_A [7]: 914 ng/mL |
| CCOC(=O)C1=C[C@@H](O)[C@H](N)[C@@H](N)C1 [化合物14S, 乙基(3R,4R,5S)-4,5-二氨基-3-羟基环己-1-烯-1-羧酸酯] | – | – | – | – | 1102 ng/mL | – | MIC_A [10]: 701 ng/mL |
| CCC(CC)O[C@H]1C=C(C(=O)O)C[C@@H](N)[C@@H]1N [化合物16S, (3S,4S,5R)-4,5-二氨基-3-(戊-3-基氧基)环己-1-烯-1-羧酸] | – | – | – | – | – | 1179 ng/mL | – |
| CCOC(=O)C1=C[C@@H](OC(C)CC)[C@H](NC(C)=O)[C@@H](N)C1 (stereo partly drawn) [化合物19S, 乙基(3R,4R,5S)-4-乙酰氨基-5-氨基-3-(sec-丁氧基)环己-1-烯-1-羧酸酯] | – | 310 ng/mL | – | 823 ng/mL | 1016 ng/mL | – | – |
| CCOC(=O)C1=C[C@@H](OC(C)C)[C@H](NC(C)=O)[C@@H](N)C1 [化合物20S, 乙基(3R,4R,5S)-4-乙酰氨基-5-氨基-3-异丙氧基环己-1-烯-1-羧酸酯] | 704 ng/mL | – | 1079 ng/mL | – | – | – | MIC_A [10]: 771 ng/mL |
